From paper PMC4008314 (Clinical cancer research : an official journal of the …, 2012)
Read-outs that look alike come from different tables or passages of the source.

Columns and labels:
refractory solid tumors = assay: Response evaluation, solid tumors; assay type: in vivo, children
[1] = cited from earlier work
endoglin = details: paired samples (n = 26), baseline vs end of cycle 1
[2] = human, in vivo
advanced HCCs = details: adults with advanced HCCs; cited from earlier work
plasma VEGF = details: paired samples (n = 26), baseline vs end of cycle 1
[3] = cited from earlier work; remark: listed apart in the source
[4] = test system: circulating endothelial progenitor cells (CEPC); assay: Circulating endothelial progenitor cells by fluorescence-activated cell sorter; assay type: in vivo, children; details: paired samples (n = 21), baseline vs end of cycle 1
refractory leukemias = details: cited from earlier work
[5] = test system: refractory leukemias (AML and FLT3ITD); assay: Response evaluation, leukemias; assay type: in vivo, children; details: 2 patients with AML and FLT3ITD
[6] = test system: placental growth factor (PlGF); assay: Plasma PlGF by ELISA, baseline vs steady state; assay type: in vivo, children; details: at steady state vs baseline, P ≤ 0.001
[7] = cited from earlier work; remark: listed apart in the source
[8] = test system: circulating endothelial cells (CEC); assay: Circulating endothelial cells by fluorescence-activated cell sorter; assay type: in vivo, children; details: paired samples (n = 21), baseline vs end of cycle 1
[9] = in vivo
[10] = in vivo; remark: listed apart in the source
clinical = details: human, in vivo
multiple tumor types = details: cited from earlier work
RCCs = details: adults with RCCs; cited from earlier work

SMILES: CNC(=O)c1cc(Oc2ccc(NC(=O)Nc3ccc(Cl)c(C(F)(F)F)c3)cc2)ccn1 [Sorafenib]
- tumor shrinkage (refractory solid tumors; 1 patient (#24) with synovial sarcoma, after cycle 1, progression after cycle 2): more than 40%
- objective responses (refractory solid tumors; patients with solid tumors): no confirmed objective responses
- patients with stable disease for 4 or more cycles (refractory solid tumors; solid tumor patients): 14
- AUC0–12h ([1]; adults, 400-mg dose after multiple doses): 47800 to 76500 ng·h/mL
- adults requiring dose reductions with chronic administration ([1]; mostly due to skin toxicity and diarrhea): Up to a third
- recommended fixed dose ([1]; twice daily, adults): 400 mg
- plasma endoglin concentration, change (endoglin): no change
- Tmax, steady state [2]: 0.8 h
- objective response (advanced HCCs): 2%
- plasma VEGF concentration, change (plasma VEGF): no change
- incidence of grade 2 and 3 hand foot skin reactions and rashes ([3]; children with solid tumors, sorafenib in combination): 5 of 19
- recommended phase II dose ([3]; twice daily, with bevacizumab and cyclophosphamide): 90 mg/m^2/dose
- CEPC number, change [4]: no change
- sorafenib steady-state (day 7) concentration (refractory leukemias; 150 mg/m^2, children with refractory leukemia): 7.0 ± 1.8 µg/mL
- sorafenib steady-state (day 7) concentration (refractory leukemias; 200 mg/m^2, children with refractory leukemia): 6.5 ± 3.6 µg/mL
- patients with complete remission (refractory leukemias; after combination therapy): 6
- patients with decreased blast percentages (refractory leukemias; by day 8): 10 of 12
- conversion of sorafenib to the active N-oxide metabolite (refractory leukemias; children vs that reported in adult patients): much higher rate of conversion
- incidence of grade 2 and 3 hand foot skin reactions and rashes (refractory leukemias; children with leukemia, sorafenib in combination): 8 of 12
- bone marrow blasts [5]: less than 5%
- PlGF, change [6]: increase
- in vitro activity [7]: low micromolar concentrations
- CEC number, change [8]: no change
- Anorexia grade 2 (non-DLT) ([9]; human): 1
- Headache grade 2 (non-DLT) ([9]; human): 1
- Hyperglycemia grade 1 (non-DLT) ([9]; human): 1
- Hypocalcemia grade 2 (non-DLT) ([9]; human): 1
- Hypokalemia grade 3 (non-DLT) ([9]; human): 1
- Hypomagnesemia grade 1 (non-DLT) ([9]; human): 2
- Hypophosphatemia grade 2 (non-DLT) ([9]; human): 1
- Increased AST grade 1 (non-DLT) ([9]; human): 1
- Increased bilirubin grade 1 (non-DLT) ([9]; human): 1
- Nausea grade 1 (non-DLT) ([9]; human): 1
- Rash/Desquamation grade 1 (non-DLT) ([9]; human): 2
- Anorexia grade 1 (non-DLT) ([9]; human, 28 days): 1
- Anorexia grade 2 (non-DLT) ([9]; human, 28 days): 1
- Diarrhea grade 1 (non-DLT) ([9]; human, 28 days): 2
- Diarrhea grade 2 (non-DLT) ([9]; human, 28 days): 1
- Fatigue grade 2 (non-DLT) ([9]; human, 28 days): 2
- Hyperglycemia grade 1 (non-DLT) ([9]; human, 28 days): 2
- Increased ALT grade 1 (non-DLT) ([9]; human, 28 days): 1
- Increased ALT grade 2 (non-DLT) ([9]; human, 28 days): 1
- Increased AST grade 1 (non-DLT) ([9]; human, 28 days): 3
- Increased AST grade 2 (non-DLT) ([9]; human, 28 days): 1
- Increased bilirubin grade 1 (non-DLT) ([9]; human, 28 days): 2
- Nausea grade 1 (non-DLT) ([9]; human, 28 days): 2
- recommended phase II dose ([9]; human, 28 days): 150 mg/m^2/dose
- Headache grade 1 (non-DLT) ([9]; human, 28 days (course 1)): 1
- Headache grade 2 (non-DLT) ([9]; human, 28 days (course 1)): 1
- Hyperglycemia grade 2 (non-DLT) ([9]; human, 28 days (course 1)): 1
- Hypoalbuminemia grade 1 (non-DLT) ([9]; human, 28 days (course 1)): 1
- Hypoalbuminemia grade 2 (non-DLT) ([9]; human, 28 days (course 1)): 1
- Hypocalcemia grade 1 (non-DLT) ([9]; human, 28 days (course 1)): 1
- Hypocalcemia grade 2 (non-DLT) ([9]; human, 28 days (course 1)): 1
- Hypokalemia grade 1 (non-DLT) ([9]; human, 28 days (course 1)): 2
- Hypomagnesemia grade 1 (non-DLT) ([9]; human, 28 days (course 1)): 1
- Hypomagnesemia grade 3 (non-DLT) ([9]; human, 28 days (course 1)): 1
- Hyponatremia grade 1 (non-DLT) ([9]; human, 28 days (course 1)): 2
- Hypophosphatemia grade 2 (non-DLT) ([9]; human, 28 days (course 1)): 1
- Hypophosphatemia grade 3 (non-DLT) ([9]; human, 28 days (course 1)): 1
- Proteinuria grade 1 (non-DLT) ([9]; human, 28 days (course 1)): 1
- Proteinuria grade 2 (non-DLT) ([9]; human, 28 days (course 1)): 1
- dose-limiting ALT/AST elevation [9]: No dose-limiting ALT/AST elevation
- Alopecia grade 1 (non-DLT) ([10]; human): 1
- Anorexia grade 2 (non-DLT) ([10]; human): 1
- Fatigue grade 2 (non-DLT) ([10]; human): 2
- Fever grade 1 (non-DLT) ([10]; human): 1
- Hand-foot skin reaction grade 2 (non-DLT) ([10]; human): 2
- Headache grade 1 (non-DLT) ([10]; human): 1
- Headache grade 2 (non-DLT) ([10]; human): 1
- Hemoglobin grade 1 (non-DLT) ([10]; human): 4
- Hemoglobin grade 2 (non-DLT) ([10]; human): 1
- Hemoglobin grade 3 (non-DLT) ([10]; human): 1
- Hypertension grade 1 (non-DLT) ([10]; human): 3
- Hypertension grade 3 (non-DLT) ([10]; human): 1
- Hypoalbuminemia grade 1 (non-DLT) ([10]; human): 1
- Hypocalcemia grade 1 (non-DLT) ([10]; human): 3
- Hypophosphatemia grade 2 (non-DLT) ([10]; human): 1
- Increased ALT grade 2 (non-DLT) ([10]; human): 1
- Increased AST grade 2 (non-DLT) ([10]; human): 1
- Increased bilirubin grade 1 (non-DLT) ([10]; human): 1
- Increased bilirubin grade 2 (non-DLT) ([10]; human): 1
- Leukopenia grade 1 (non-DLT) ([10]; human): 4
- Leukopenia grade 2 (non-DLT) ([10]; human): 2
- Leukopenia grade 3 (non-DLT) ([10]; human): 2
- Lymphopenia grade 1 (non-DLT) ([10]; human): 2
- Lymphopenia grade 2 (non-DLT) ([10]; human): 2
- Lymphopenia grade 3 (non-DLT) ([10]; human): 1
- Nausea grade 3 (non-DLT) ([10]; human): 1
- Neutropenia grade 1 (non-DLT) ([10]; human): 3
- Neutropenia grade 2 (non-DLT) ([10]; human): 1
- Neutropenia grade 3 (non-DLT) ([10]; human): 2
- Pain, Other (jaw) grade 1 (non-DLT) ([10]; human): 1
- Thrombocytopenia grade 2 (non-DLT) ([10]; human): 1
- Vomiting grade 1 (non-DLT) ([10]; human): 1
- Vomiting grade 3 (non-DLT) ([10]; human): 1
- patients who developed a DLT after cycle 1 ([10]; human): 5
- Alopecia grade 1 (non-DLT) ([10]; human, 28 day): 2
- Anorexia grade 1 (non-DLT) ([10]; human, 28 day): 4
- Diarrhea grade 2 (non-DLT) ([10]; human, 28 day): 1
- Fatigue grade 1 (non-DLT) ([10]; human, 28 day): 4
- Fatigue grade 2 (non-DLT) ([10]; human, 28 day): 2
- Fever grade 1 (non-DLT) ([10]; human, 28 day): 2
- Hand-foot skin reaction grade 1 (non-DLT) ([10]; human, 28 day): 1
- Hand-foot skin reaction grade 2 (non-DLT) ([10]; human, 28 day): 1
- Headache grade 1 (non-DLT) ([10]; human, 28 day): 3
- Headache grade 2 (non-DLT) ([10]; human, 28 day): 1
- Hypoalbuminemia grade 1 (non-DLT) ([10]; human, 28 day): 1
- Hypoalbuminemia grade 2 (non-DLT) ([10]; human, 28 day): 1
- Hypocalcemia grade 1 (non-DLT) ([10]; human, 28 day): 3
- Hypophosphatemia grade 2 (non-DLT) ([10]; human, 28 day): 2
- Increased ALT grade 2 (non-DLT) ([10]; human, 28 day): 1
- Increased AST grade 2 (non-DLT) ([10]; human, 28 day): 1
- Increased bilirubin grade 2 (non-DLT) ([10]; human, 28 day): 1
- Lymphopenia grade 1 (non-DLT) ([10]; human, 28 day): 1
- Lymphopenia grade 3 (non-DLT) ([10]; human, 28 day): 1
- Mucositis/stomatitis grade 1 (non-DLT) ([10]; human, 28 day): 2
- Nausea grade 2 (non-DLT) ([10]; human, 28 day): 2
- Rash/Desquamation grade 1 (non-DLT) ([10]; human, 28 day): 3
- Rash/Desquamation grade 2 (non-DLT) ([10]; human, 28 day): 1
- Thrombocytopenia grade 1 (non-DLT) ([10]; human, 28 day): 4
- Thrombocytopenia grade 2 (non-DLT) ([10]; human, 28 day): 1
- Hand-foot skin reaction grade 1 (non-DLT) ([10]; human, 28 days): 1
- Hemoglobin grade 1 (non-DLT) ([10]; human, 28 days): 3
- Hemoglobin grade 2 (non-DLT) ([10]; human, 28 days): 1
- Hemoglobin grade 3 (non-DLT) ([10]; human, 28 days): 2
- Hypertension grade 1 (non-DLT) ([10]; human, 28 days): 4
- Hypertension grade 2 (non-DLT) ([10]; human, 28 days): 1
- Hyponatremia grade 1 (non-DLT) ([10]; human, 28 days): 3
- Leukopenia grade 1 (non-DLT) ([10]; human, 28 days): 5
- Leukopenia grade 2 (non-DLT) ([10]; human, 28 days): 2
- Leukopenia grade 3 (non-DLT) ([10]; human, 28 days): 2
- Pain, Other (forearm) grade 1 (non-DLT) ([10]; human, 28 days): 1
- Rash/Desquamation grade 2 (non-DLT) ([10]; human, 28 days): 3
- recommended phase II dose ([10]; human, 28 days): 200 mg/m^2/dose
- Lymphopenia grade 1 (non-DLT) ([10]; human, 28 days (course 1)): 2
- Lymphopenia grade 2 (non-DLT) ([10]; human, 28 days (course 1)): 1
- Lymphopenia grade 3 (non-DLT) ([10]; human, 28 days (course 1)): 2
- Neutropenia grade 1 (non-DLT) ([10]; human, 28 days (course 1)): 5
- Neutropenia grade 2 (non-DLT) ([10]; human, 28 days (course 1)): 1
- Neutropenia grade 3 (non-DLT) ([10]; human, 28 days (course 1)): 2
- Thrombocytopenia grade 1 (non-DLT) ([10]; human, 28 days (course 1)): 4
- bony abnormalities on serial plain radiographs [10]: No bony abnormalities
- half-life (clinical): ≥ 24 h
- AUC(0-t) (clinical; 130 mg/m2, AUC0–24h, day 1): 20000 ng·h/mL
- Tmax (clinical; 130 mg/m2, Tmax, day 1): 7.9 h
- Tmax (clinical; 150 mg/m2, Tmax, steady state): 3 h
- AUC(0-t) (clinical; 200 mg/m2, AUC0–24h, day 1): 19000 ng·h/mL
- Cmax (clinical; 200 mg/m2, Cmax, day 1): 1000 ng/mL
- AUC(0-t) (clinical; 200 mg/m2, median steady-state AUC0–12h): 55700 ng·h/mL
- AUC(0-t) (clinical; 250 mg/m2, AUC0–24h, day 1): 27600 ng·h/mL
- Tmax (clinical; 250 mg/m2, Tmax, day 1): 8 h
- Tmax (clinical; […]2, Tmax, day 1): 5 h
- AUC(0-t) (clinical; mean (SD) AUC0–12h steady state): 61200 ng·h/mL
- Cmax (clinical; po, 130 mg/m2, Cmax, day 1): 1500 ng/mL
- AUC(0-t) (clinical; po, 150 mg/m2, AUC0–12h, steady state): 49700 ng·h/mL
- AUC(0-t) (clinical; po, 150 mg/m2, AUC0–24h, day 1): 28300 ng·h/mL
- Cmax (clinical; po, 150 mg/m2, Cmax, day 1): 1900 ng/mL
- AUC(0-t) (clinical; po, 200 mg/m2, AUC0–12h, steady state): 60200 ng·h/mL
- AUC(0-t) (clinical; po, 200 mg/m2, AUC0–24h, day 1): 27300 ng·h/mL
- Cmax (clinical; po, 200 mg/m2, Cmax, day 1): 1600 ng/mL
- Cmax (clinical; po, 200 mg/m2, Cmax, steady state): 8300 ng/mL
- Tmax (clinical; po, 200 mg/m2, Tmax, steady state): 3.4 h
- Tmax (clinical; po, […]2, Tmax, day 1): 5 h
- in vivo antitumor activity (multiple tumor types): growth inhibition observed in multiple tumor types
- objective response (RCCs): 10%

SMILES: O=P1(N(CCCl)CCCl)NCCCO1 (centres unmarked) [cyclophosphamide]
- recommended phase II dose ([3]; once daily, with sorafenib and bevacizumab): 50 mg/m^2
